In experiment [1] the test system is synaptic benzodiazepine-sensitive receptors (BZR), GABAAR. The experiment is described as follows: 3H-flunitrazepam binding, rat brain homogenate. The note with it: for BZR % (percent inhibition): at 10,000 nM; for Ki: read-out: BZR (Ki).
Experiment [2] concerns the target δ opioid receptor (DOR) (Homo sapiens, UniProt P41143). The experiment in a line: Radioligand competition binding, DOR ([3H]-DADLE), HEK293 cell homogenates. The settings on record: for inhibition at 10 µM: read-out: DOR % (percent inhibition), at 10,000 nM; for DOR % (percent inhibition): at 10,000 nM.
Experiment [3] has as its target µ opioid receptor (MOR) (Homo sapiens, UniProt P35372). The experiment is described as follows: Radioligand competition binding, MOR ([3H]-DAMGO), HEK293 cell homogenates. The note with it: [3H]-DAMGO; for inhibition at 10 µM: read-out: MOR % (percent inhibition), at 10,000 nM; for MOR % (percent inhibition): at 10,000 nM. (In a radioligand displacement assay an active substance lowers the binding of a labelled ligand.)

The target of experiment [4] is κ opioid receptor (KOR) (Homo sapiens, UniProt P41145). The experiment is described as follows: Radioligand competition binding, KOR ([3H]-U69593), HEK293 cell homogenates. The note with it: for inhibition at 10 µM: read-out: KOR % (percent inhibition), at 10,000 nM; for inhibition at 10 µM / KOR % (percent inhibition): [3H]-U69593; for KOR % (percent inhibition): at 10,000 nM.

Setting [5] is: read-out: KOR (Ki), [3H]-U69593, HEK293 homogenates.

We go through 21 molecules from PMC7503500, “A Structure-Activity Relationship Comparison of Imidazodiazepines Binding at Kappa, Mu, and Delta Opioid Receptors and the GABAA Receptor” (Molecules, 2020).

Read-outs that look alike come from different tables or passages of the source.

What is called Ki is a measure of affinity in units of concentration, obtained from inhibition or displacement. A word on the inhibition: it is the drop in the measured response relative to a control, in per cent.

For the molecule `C#Cc1ccc2c(c1)C(c1ccccc1F)=N[C@@H](C)c1c(C(=O)OCCC)ncn1-2` [GL-I-32], in experiment [1], the “BZR % (percent inhibition)” value came to 98%. Moreover, the Ki worked out at 148 nM in experiment [1] and 64 nM in experiment [4]. The inhibition at 10 µM in experiment [2] worked out at 14%; in experiment [3] it was 9%; in experiment [4] it was 95%.
In the case of `C#Cc1ccc2c(c1)C(c1ccccn1)=N[C@H](C)c1c(C(=O)NC)ncn1-2` [GL-II-31], in experiment [1], the “BZR % (percent inhibition)” value was 72%. Moreover, the Ki in experiment [1] came to 1700 nM. In addition, the figures for the inhibition at 10 µM in experiment [2], in experiment [3] and in experiment [4] were 3%, 17% and 23%, respectively.
With `C#Cc1ccc2c(c1)C(c1ccccc1F)=N[C@H](C)c1c(C(=O)N(C)C)ncn1-2` [GL-II-73], the “BZR % (percent inhibition)” value in experiment [1] is on record as 75%. Besides, the inhibition constant Ki in experiment [1] is 506 nM; in experiment [4] it was 1190 nM. The inhibition at 10 µM was 0% in experiment [2], 6% in experiment [3] and 58% in experiment [4].
On to `Cc1noc(-c2ncn3c2[C@@H](C)N=C(c2ccccn2)c2cc(C4CC4)ccc2-3)n1` [GL-III-64], for which, in experiment [1], the “BZR % (percent inhibition)” value is given as 92% and the inhibition constant (Ki) was found to be 1490 nM. Besides, the “DOR % (percent inhibition)” value in experiment [2] was found to be 14%. Moreover, the “MOR % (percent inhibition)” value in experiment [3] stood at 7%. Besides, the “KOR % (percent inhibition)” value in experiment [4] was 60%. Also, the inhibition constant (Ki) in experiment [4] (setting [5]) worked out at 2050 nM.
Regarding `C#Cc1ccc2c(c1)C(c1ccccc1F)=N[C@@H](C)c1c(C(=O)OC(C)C)ncn1-2` [GL-I-31], in experiment [1], the “BZR % (percent inhibition)” value is reported as 97%. Also, the Ki in experiment [1] amounted to 245 nM; in experiment [4], 65 nM. Besides, the inhibition at 10 µM in experiment [2] is 8%; in experiment [3], 32%; in experiment [4], 94%.
`C#Cc1ccc2c(c1)C(c1ccccc1F)=N[C@H](C)c1c(-c3nc(C(C)C)no3)ncn1-2` [MP-IV-010]: in experiment [1], the “BZR % (percent inhibition)” value is 64% and the Ki was 814 nM. Also, the “DOR % (percent inhibition)” value in experiment [2] stood at 5%. For the same molecule, the “MOR % (percent inhibition)” value in experiment [3] is recorded as 33%. In experiment [4], the “KOR % (percent inhibition)” value came to 94%. For the same molecule, the Ki in experiment [4] (setting [5]) came out at 145 nM.
On to `C#Cc1ccc2c(c1)C(c1ccccc1F)=N[C@@H](C)c1c(C(=O)O)ncn1-2` [SH-053-2′F-S-CH3-Acid], for which the “BZR % (percent inhibition)” value in experiment [1] came out at 93%. Also, the Ki in experiment [1] came out at 29 nM. Moreover, the inhibition at 10 µM in experiment [2] was 18%; in experiment [3] it was 0%; in experiment [4], 20%.
For `C#Cc1ccc2c(c1)C(c1ccccc1F)=N[C@@H](C)c1c(C(N)=O)ncn1-2` [MP-III-018.B], the “BZR % (percent inhibition)” value in experiment [1] turned out to be 97%. In addition, the Ki stood at 17 nM in experiment [1] and 2780 nM in experiment [4]. The figures for the inhibition at 10 µM in experiment [2], in experiment [3] and in experiment [4] were 10%, 2% and 51%, respectively.
Consider `C#Cc1ccc2c(c1)C(c1ccccc1F)=N[C@H](C)c1c(C(=O)O)ncn1-2` [SH-053-2′F-R-CH3-Acid], for which the “BZR % (percent inhibition)” value in experiment [1] is 93%. Further, in experiment [1], the Ki was determined as 37 nM. In addition, the results for the inhibition at 10 µM in experiment [2], in experiment [3] and in experiment [4] were 0%, 0% and 16%, respectively.
As to `C#Cc1ccc2c(c1)C(c1ccccc1)=NCc1c(-c3cnco3)ncn1-2` [KRM-II-82], the “BZR % (percent inhibition)” value in experiment [1] was determined as 95%. In addition, the Ki in experiment [1] was 96 nM; in experiment [4], 1200 nM. The inhibition at 10 µM in experiment [2] stood at 20%; in experiment [3], 5%; in experiment [4], 78%.
On to `Cc1ncoc1-c1ncn2c1CN=C(c1ccccn1)c1cc(Br)ccc1-2` [KRM-II-81], for which the “BZR % (percent inhibition)” value in experiment [1] came out at 86%. Also, the Ki in experiment [1] was determined as 294 nM. Also, the inhibition at 10 µM in experiment [2] was found to be 15%; in experiment [3] it was 7%; in experiment [4], 46%. Also, the “KOR affinity (in words)” value in experiment [4] (screening at 10,000 nM) is “insignificant KOR affinity”.
On to `C#Cc1ccc2c(c1)C(c1ccccc1F)=N[C@@H](C)c1c(C(=O)SCC)ncn1-2` [GL-I-77], for which the “BZR % (percent inhibition)” value in experiment [1] is given as 92%. Besides, the values for the Ki in experiment [1] and in experiment [4] were 124 nM and 125 nM, respectively. Moreover, the inhibition at 10 µM in experiment [2] turned out to be 4%; in experiment [3] it was 41%; in experiment [4], 95%.
Consider `CCOC(=O)c1ncn2c1[C@H](C)N=C(c1ccccc1F)c1cc(Br)ccc1-2` [SH-I-048B], for which, in experiment [1], the “BZR % (percent inhibition)” value is on record as 61% and the Ki was found to be 96 nM. In experiment [2], the “DOR % (percent inhibition)” value came out at 0%. For the same molecule, the “MOR % (percent inhibition)” value in experiment [3] was 0%. Also, in experiment [4], the “KOR % (percent inhibition)” value is reported as 95%.
For `C#Cc1ccc2c(c1)C(c1ccccc1F)=N[C@@H](C)c1c(C(=O)OC)ncn1-2` [MP-III-021], the “BZR % (percent inhibition)” value in experiment [1] is listed as 88%. Also, the Ki in experiment [1] came to 219 nM; in experiment [4] it was 122 nM. Moreover, the results for the inhibition at 10 µM in experiment [2], in experiment [3] and in experiment [4] were 22%, 0% and 93%, respectively.
Take `C#Cc1ccc2c(c1)C(c1ccccc1F)=NCc1c(-c3ocnc3C)ncn1-2` [KRM-III-65]: the “BZR % (percent inhibition)” value in experiment [1] is listed as 96%. For the same molecule, the Ki in experiment [1] worked out at 45 nM; in experiment [4] it was 879 nM. Besides, the inhibition at 10 µM in experiment [2] was 16%; in experiment [3], 0%; in experiment [4] it was 64%.
Regarding `C#Cc1ccc2c(c1)C(c1ccccc1F)=N[C@@H](C)c1c(C(=O)OC(C)(C)CC)ncn1-2` [GL-I-33], the “BZR % (percent inhibition)” value in experiment [1] is 96%. Further, the values for the Ki in experiment [1] and in experiment [4] were 117 nM and 34 nM, respectively. For the same molecule, the values for the inhibition at 10 µM in experiment [2], in experiment [3] and in experiment [4] were 25%, 30% and 94%, respectively.
For the molecule `Cc1noc(-c2ncn3c2[C@@H](C)N=C(c2ccccc2F)c2cc(C4CC4)ccc2-3)n1` [GL-III-63], the “BZR % (percent inhibition)” value in experiment [1] is listed as 28%. In addition, the “DOR % (percent inhibition)” value in experiment [2] stood at 31%. In addition, the “MOR % (percent inhibition)” value in experiment [3] was 8%. Also, the “KOR % (percent inhibition)” value in experiment [4] is on record as 78%. For the same molecule, the Ki in experiment [4] (setting [5]) stood at 678 nM.
In the case of `COC(=O)c1ncn2c1[C@@H](C)N=C(c1ccccc1F)c1cc(Br)ccc1-2` [MP-III-058], the “BZR % (percent inhibition)” value in experiment [1] stood at 86%. The Ki stood at 290 nM in experiment [1] and 237 nM in experiment [4]. Moreover, the inhibition at 10 µM in experiment [2] worked out at 4%; in experiment [3], 0%; in experiment [4] it was 84%.
`C#Cc1ccc2c(c1)C(c1ccccc1F)=N[C@@H](C)c1c(-c3cnco3)ncn1-2` [GL-III-78]: in experiment [1], the “BZR % (percent inhibition)” value stood at 101% and the Ki came to 261 nM. In addition, the “DOR % (percent inhibition)” value in experiment [2] is 9%. For the same molecule, the “MOR % (percent inhibition)” value in experiment [3] came to 10%. Also, the “KOR % (percent inhibition)” value in experiment [4] came out at 74%. In addition, the Ki in experiment [4] (setting [5]) is 451 nM.
Consider `C#Cc1ccc2c(c1)C(c1ccccn1)=N[C@H](C)c1c(C(=O)OCC)ncn1-2` [GL-II-19], for which the “BZR % (percent inhibition)” value in experiment [1] amounted to 71%. Moreover, the Ki in experiment [1] amounted to 1140 nM. The inhibition at 10 µM in experiment [2] was 2%; in experiment [3], 17%; in experiment [4] it was 44%.
Turning to `C#Cc1ccc2c(c1)C(c1ccccn1)=NCc1c(C(=O)OCC)ncn1-2` [Hz-166], the inhibition at 10 µM in experiment [2] is 49%; in experiment [3] it was 6%; in experiment [4] it was 60%. For the same molecule, the Ki in experiment [4] is 3820 nM.
